Several values for one entry are separate records, joined by “and”; a condition that tells them apart may be missing. Identical values can stand only once. Inconclusive results and toxic doses are left out.
System: BDF1 mice, B16 melanoma ip, median survival T/C
Test: NCI In Vivo Anticancer Drug Screen. Data for tumor model B16 Melanoma (intraperitoneal) in B6D2F1 (BDF1) mice
Settings: endpoint: median survival time, higher = longer survival
In short: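 Read-out: survival or tumor size, given as treated/control ratio. Controls received vehicle only; animals bore transplantable tumors.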

[1] = dose: 12.5 mg/kg/injection, schedule: Q01DX009 (ip), vehicle: saline with Tween-80
[2] = dose: 25.0 mg/kg/injection, schedule: Q01DX009 (ip), vehicle: saline with Tween-80
[3] = dose: 50.0 mg/kg/injection, schedule: Q01DX009 (ip), vehicle: saline with Tween-80
[4] = dose: 50.0 mg/kg/injection, schedule: Q01DX009 (ip), vehicle: saline
[5] = dose: 100.0 mg/kg/injection, schedule: Q01DX009 (ip), vehicle: saline
[6] = dose: 400.0 mg/kg/injection, schedule: Q01DX009 (ip), vehicle: saline
[7] = dose: 100.0 mg/kg/injection, schedule: Q01DX009 (ip), vehicle: Klucel (hydroxypropylcellulose) (HPC)
[8] = dose: 200.0 mg/kg/injection, schedule: Q01DX009 (ip), vehicle: Klucel (hydroxypropylcellulose) (HPC)
[9] = dose: 400.0 mg/kg/injection, schedule: Q01DX009 (ip), vehicle: Klucel (hydroxypropylcellulose) (HPC)
[10] = dose: 25.0 mg/kg/injection, schedule: Q01DX009 (ip), vehicle: saline
[11] = dose: 100.0 mg/kg/injection, schedule: Q01DX009 (ip), vehicle: saline with Tween-80
[12] = dose: 200.0 mg/kg/injection, schedule: Q01DX009 (ip), vehicle: saline with Tween-80
[13] = dose: 200.0 mg/kg/injection, schedule: Q01DX009 (ip), vehicle: saline
[14] = dose: 400.0 mg/kg/injection, schedule: Q01DX009 (ip), vehicle: saline with Tween-80

Cc1c(Cl)cccc1NC(=O)COc1ccc(Cl)cc1
T/C [1]: 96 % of control | T/C [2]: 90 % of control | T/C [3]: 88 % of control

Cc1nn(C2CC(O)C(O)C(CO)O2)c(=O)[nH]c1=O (stereo not given)
T/C [4]: 95 % of control | T/C [5]: 86 % of control | T/C [6]: 86 % of control

CC1OC(OCc2ccc3c(c2)C(=O)c2ccccc2C3=O)CC(N)C1O (stereo not given)
T/C (dose: 1.56 mg/kg/injection, schedule: Q01DX009 (ip), vehicle: water): 102 % of control | T/C (dose: 3.13 mg/kg/injection, schedule: Q01DX009 (ip), vehicle: water): 93 % of control | T/C (dose: 6.25 mg/kg/injection, schedule: Q01DX009 (ip), vehicle: water): 115 % of control | T/C (dose: 12.5 mg/kg/injection, schedule: Q01DX009 (ip), vehicle: water): 115 % of control | T/C (dose: 50.0 mg/kg/injection, schedule: Q01DX009 (ip), vehicle: water): 94 % of control

C=C(C)C(=O)OCC1CO1 (stereo not given)
T/C (dose: 50.0 mg/kg/injection, schedule: Q01DX009 (ip), vehicle: Klucel (hydroxypropylcellulose) (HPC)): 102 % of control | T/C [7]: 100 % of control | T/C [8]: 109 % of control

COc1ccc(NC(=O)Nc2ccc(C(C)C)cc2)cc1
T/C [7]: 94 % of control | T/C [8]: 94 % of control | T/C [9]: 97 % of control

Brc1ccc(-c2csc(Nc3nc(-c4ccc(Br)cc4)cs3)n2)cc1
T/C [1]: 105 % of control | T/C [2]: 122 % of control | T/C (dose: 25.0 mg/kg/injection, schedule: Q04DX003 (ip), vehicle: saline with Tween-80): 97 % of control | T/C [3]: 89 % of control and 107 % of control | T/C (dose: 50.0 mg/kg/injection, schedule: Q04DX003 (ip), vehicle: saline with Tween-80): 100 % of control | T/C (dose: 100.0 mg/kg/injection, schedule: Q04DX003 (ip), vehicle: saline with Tween-80): 86 % of control and 94 % of control | T/C (dose: 200.0 mg/kg/injection, schedule: Q04DX003 (ip), vehicle: saline with Tween-80): 86 % of control

Nc1ncnc2c1ccn2C1OC2COP(=O)(O)OC2C1O (stereo not given)
T/C (dose: 1.0 mg/kg/injection, schedule: Q01DX009 (ip), vehicle: saline): 116 % of control | T/C (dose: 4.0 mg/kg/injection, schedule: Q01DX009 (ip), vehicle: saline): 111 % of control

C/C(=N\[N+](C)(C)C)c1ccc(Br)cc1
T/C [10]: 88 % of control | T/C [4]: 102 % of control | T/C [5]: 94 % of control

O=[N+]([O-])c1cc([N+](=O)[O-])c(Nn2c3ccccc3c3ccccc32)c([N+](=O)[O-])c1
T/C [1]: 86 % of control | T/C [2]: 88 % of control | T/C [3]: 93 % of control

CC(c1ccccc1)N1C(=O)CSC1=S (stereo not given)
T/C [2]: 100 % of control | T/C [3]: 94 % of control | T/C [11]: 103 % of control | T/C [12]: 101 % of control

C[C@]12C=CC(=O)C=C1CC[C@@H]1[C@@H]2[C@@H](O)C[C@@]2(C)[C@H]1CC[C@]2(O)C(=O)CO
T/C (dose: 10.0 mg/kg/injection, schedule: Q02DX009 (ip), vehicle: Klucel (hydroxypropylcellulose) (HPC)): 91 % of control | T/C (dose: 20.0 mg/kg/injection, schedule: Q02DX009 (ip), vehicle: Klucel (hydroxypropylcellulose) (HPC)): 100 % of control | T/C (dose: 40.0 mg/kg/injection, schedule: Q02DX009 (ip), vehicle: Klucel (hydroxypropylcellulose) (HPC)): 96 % of control | T/C (dose: 80.0 mg/kg/injection, schedule: Q02DX009 (ip), vehicle: Klucel (hydroxypropylcellulose) (HPC)): 103 % of control | T/C (dose: 160.0 mg/kg/injection, schedule: Q02DX009 (ip), vehicle: Klucel (hydroxypropylcellulose) (HPC)): 109 % of control and 115 % of control | T/C (dose: 320.0 mg/kg/injection, schedule: Q02DX009 (ip), vehicle: Klucel (hydroxypropylcellulose) (HPC)): 92 % of control

NC(CCC(=O)NCC(=O)O)C(=O)O (stereo not given)
T/C [4]: 92 % of control | T/C [5]: 91 % of control | T/C [13]: 101 % of control | T/C [6]: 88 % of control

COc1ccc(NC(=O)Oc2cc(C)cc(C)c2)cc1
T/C [7]: 96 % of control | T/C (dose: 100.0 mg/kg/injection, schedule: Q04DX003 (ip), vehicle: Klucel (hydroxypropylcellulose) (HPC)): 112 % of control | T/C [8]: 96 % of control | T/C (dose: 200.0 mg/kg/injection, schedule: Q04DX003 (ip), vehicle: Klucel (hydroxypropylcellulose) (HPC)): 106 % of control | T/C [9]: 89 % of control | T/C (dose: 400.0 mg/kg/injection, schedule: Q04DX003 (ip), vehicle: Klucel (hydroxypropylcellulose) (HPC)): 112 % of control

O=c1[nH]c(=O)n(C2CC(O)C(CO)O2)cc1C(F)(F)F (stereo not given)
T/C (dose: 12.5 mg/kg/injection, schedule: Q01DX009 (ip), vehicle: saline): 104 % of control | T/C (dose: 20.0 mg/kg/injection, schedule: Q01DX009 (ip), vehicle: saline): 105 % of control | T/C [10]: 102 % of control | T/C [4]: 112 % of control

CCC(C)C(NC(=O)c1ccccc1)C(=O)O (stereo not given)
T/C (dose: 6.25 mg/kg/injection, schedule: Q01DX009 (ip), vehicle: saline with Tween-80): 100 % of control | T/C [1]: 101 % of control | T/C [2]: 95 % of control | T/C [3]: 90 % of control and 94 % of control

O=C(O)/C(=C/c1ccc(O)cc1)c1ccccc1
T/C [11]: 110 % of control | T/C [12]: 100 % of control | T/C [14]: 92 % of control

CO[C@H]1Nc2c(ccc(C)c2O)C(=O)N2C=C(/C=C/C(N)=O)C[C@@H]12
T/C (dose: 0.05 mg/kg/injection, schedule: Q04DX003 (ip), vehicle: DMSO): 111 % of control | T/C (dose: 0.06 mg/kg/injection, schedule: Q01DX009 (ip), vehicle: saline with Tween-80): 92 % of control | T/C (dose: 0.1 mg/kg/injection, schedule: Q04DX003 (ip), vehicle: DMSO): 101 % of control | T/C (dose: 0.12 mg/kg/injection, schedule: Q01DX009 (ip), vehicle: saline with Tween-80): 94 % of control | T/C (dose: 0.2 mg/kg/injection, schedule: Q04DX003 (ip), vehicle: DMSO): 120 % of control | T/C (dose: 0.25 mg/kg/injection, schedule: Q01DX009 (ip), vehicle: saline with Tween-80): 97 % of control | T/C (dose: 0.4 mg/kg/injection, schedule: Q04DX003 (ip), vehicle: DMSO): 112 % of control | T/C (dose: 16.5 micrograms/kg/injection, schedule: Q01DX009 (ip), vehicle: saline + alcohol): 106 % of control | T/C (dose: 25.0 micrograms/kg/injection, schedule: Q01DX009 (ip), vehicle: saline with Tween-80): 100 % of control | T/C (dose: 25.0 micrograms/kg/injection, schedule: Q04DX003 (ip), vehicle: saline with Tween-80): 101 % of control | T/C (dose: 33.0 micrograms/kg/injection, schedule: Q01DX009 (ip), vehicle: saline + alcohol): 100 % of control | T/C (dose: 50.0 micrograms/kg/injection, schedule: Q01DX009 (ip), vehicle: saline with Tween-80): 104 % of control | T/C (dose: 50.0 micrograms/kg/injection, schedule: Q04DX003 (ip), vehicle: saline with Tween-80): 104 % of control | T/C (dose: 66.0 micrograms/kg/injection, schedule: Q01DX009 (ip), vehicle: saline + alcohol): 107 % of control | T/C (dose: 100.0 micrograms/kg/injection, schedule: Q01DX009 (ip), vehicle: saline with Tween-80): 96 % of control | T/C (dose: 100.0 micrograms/kg/injection, schedule: Q04DX003 (ip), vehicle: saline with Tween-80): 111 % of control | T/C (dose: 200.0 micrograms/kg/injection, schedule: Q01DX009 (ip), vehicle: saline with Tween-80): 95 % of control | T/C (dose: 200.0 micrograms/kg/injection, schedule: Q04DX003 (ip), vehicle: saline with Tween-80): 107 % of control

OCCN1CCC2(CC1)SSC1(CCN(CCO)CC1)S2
T/C [5]: 117 % of control | T/C [13]: 112 % of control

COc1cc2cc(c1Cl)N(C)C(=O)CC(OC(=O)C(C)C)C1(C)OC1C(C)C1CC(O)(NC(=O)O1)C(OC)/C=C/C=C(C)C2 (stereo not given)
T/C (dose: 3.1 micrograms/kg/injection, schedule: Q01DX009 (ip), vehicle: saline + alcohol): 124 % of control | T/C (dose: 6.25 micrograms/kg/injection, schedule: Q01DX009 (ip), vehicle: saline + alcohol): 169 % of control | T/C (dose: 7.0 micrograms/kg/injection, schedule: Q01DX009 (ip), vehicle: saline + alcohol): 150 % of control | T/C (dose: 12.5 micrograms/kg/injection, schedule: Q01DX009 (ip), vehicle: saline + alcohol): 152 % of control and 168 % of control | T/C (dose: 15.0 micrograms/kg/injection, schedule: Q01DX009 (ip), vehicle: saline + alcohol): 165 % of control | T/C (dose: 25.0 micrograms/kg/injection, schedule: Q01DX009 (ip), vehicle: saline + alcohol): 157 % of control and 160 % of control and 165 % of control | T/C (dose: 30.0 micrograms/kg/injection, schedule: Q01DX009 (ip), vehicle: saline + alcohol): 178 % of control | T/C (dose: 50.0 micrograms/kg/injection, schedule: Q01DX009 (ip), vehicle: saline + alcohol): 164 % of control and 176 % of control | T/C (dose: 60.0 micrograms/kg/injection, schedule: Q01DX009 (ip), vehicle: saline + alcohol): 182 % of control

CC1(C)SC2C(NC(=O)C(N)c3ccccc3)C(=O)N2C1C(=O)O (stereo not given)
T/C [11]: 100 % of control | T/C [12]: 95 % of control | T/C [14]: 90 % of control
